Results as given in patent US20150025077A1 (COYOTE PHARMACEUTICALS, INC., priority 2012, published 2015).

Assays:
[1] = tested on: Rap1; assay: Prenylation of Rap1 in Neuro2A cells, western blotting; type: cell-based, mouse; settings: 100 nM; with GGTI-298; percentage of control (GGTI only)
Procedure: Mouse neuroblastoma Neuro2A cells were cultured in DMEM supplemented with 10% FBS for 24 hrs. The cells were treated with 102GGA derivative compounds for 24 hrs first before GGTase inhibitor GGTI-298 was added to the culture medium for additional 24 hr incubation. […] Both un-prenylated and total Rap1 protein bands were quantified using Image J and normalized to their respective loading control GAPDH. The results for control and each compound treatment were calculated as the ratio of normalized un-prenylated Rap1 to total Rap1, and averaged from two biological repeats of one experiment. The final results were presented as a percentage of the control treatments (GGTI only) from the same batch experiment. The data shown in the chart were averaged from two repeats of one experiment and presented as the ratio of normalized un-prenylated Rap1 to total Rapt Compound ID numbers in table refer to structures in Table 1 and Table 2.

[2] = tested on: HSP70; assay: HSP70 levels in Neuro 2a cells, ELISA; type: cell-based, mouse; settings: 48 hrs compound then 24 hrs GGTI-298
Procedure: Mouse neuroblastoma 2a cells were cultured in DMEM with 10% FBS for 24 hrs. […] After 24 hrs cells were harvested and lysates were prepared and analyzed by ELISA for HSP70. Compound ID numbers in table refer to structures in Table 1 and Table 2.

[3] = tested on: Sprague Dawley rats; assay: Kainic acid stereotactic hippocampus injection model, fraction of cells damaged; type: in vivo, rat; settings: KA at 72 hours
Procedure: CNS-102 was administered orally to Sprague Dawley rats at 12 mg/kg. After dosing, KA was stereotactically injected into the hippocampus at 24, 48, 72, 96 and 168 hours to induce neuron damage. After 24 h, hippocampus tissue was collected, stained, and imaged. The scans were analyzed by Image J to calculate the fraction of cells having KA-induced damage. Average fraction damaged in the hippocampus from ten animals for each treatment (PBS vs. 12 mg/kg CNS-102) by time (24, 48, 72, 96 and 168 hours) combination was estimated with PROC MIXED in SAS. Comparisons of the CNS-102 treatment groups to the pooled PBS treatment at the different times can be made, giving the results tabulated below.
The fraction of cells damaged in the kainic acid model was determined on 130 rats, each receiving one dose of CNS-102 at either 0, 1, 3, 6, 12 or 24 mg/kg. PBS was used for dosing at 0 mg/kg. The linear model of the log10 percent damage versus concentration is graphically shown FIG. 5.
After dosing, KA was stereotactically injected into the hippocampus at 72 hours to induce neuron damage. After 24 h, hippocampus tissue was collected, stained, and imaged. The scans were analyzed by Image J to calculate the fraction of cells having KA-induced damage.
The indicated compounds or vehicle control were orally dosed to Sprague-Dawley rats, and Kainic acid was injected. After dosing, KA was stereotactically injected into the hippocampus at 72 hours to induce neuron damage. After 24 h, hippocampus tissue was collected, stained, and imaged. The scans were analyzed by Image J to calculate the fraction of cells having KA-induced damage. Neurons damaged by Kainic acid (mean of hippocampus CA3 neurons damaged) were quantified.

Row | Compound | unprenylated/total RAP1 (%) [1] [%] | HSP70 level, ELISA signal (absence of compounds normalized as 1.00) ([2]; 10uM) | HSP70 level, ELISA signal (absence of compounds normalized as 1.00) ([2]; 100 nM) | also measured
1 | CCCCCCNC(=O)OC/C=C(\C)CC/C=C(\C)CCC=C(C)C [Compound 8i, Hexyl 2E, 6E-farnesyl carbamate] | 59 | 0.97 | – | –
2 | CCCCCCNC(=O)OC/C=C(\C)CC/C=C(\C)CC/C=C(\C)CCC=C(C)C [Compound 7e, n-Hexyl 2E,6E,10E-geranylgeranyl carbamate] | 64 | – | – | Mean of Hippocampus CA3 Neurons Damaged ([3]; 12 mg/kg oral): 18%
3 | CC(C)=CCC/C(C)=C/CC/C(C)=C/CC/C(C)=C/CC1CCCCC1=O (stereo not drawn) [Compound 84] | 72 | – | – | –
4 | CC(C)=CCC/C(C)=C/CC/C(C)=C/CC/C(C)=C/COC(=S)NCCN1CCOCC1 [Compound 10m, Morpholinyl-2′-ethyl 2E,6E,10E-geranylgeranyl thiocarbamate] | 100 | 1.06 | – | –
5 | CC(=O)CC/C=C(\C)CC/C=C(\C)CCC=C(C)C [Compound 52] | 71 | – | – | –
6 | CCOC(=O)CCNC(=O)OC/C=C(\C)CC/C=C(\C)CC/C=C(\C)CCC=C(C)C [Compound 7m, Ethoxycarbonyl ethyl 2E, 6E, 10E-geranylgeranyl carbamate] | 54 | – | 0.89 | –
7 | CC(C)=CCC/C(C)=C/CC/C(C)=C/CC/C(C)=C/C1=N[C@@H](C(C)C)CO1 [Compound 27a, (S)-4-isopropyl-2-((1E,5E,9E)-2,6,10,14-tetramethylpentadeca-1,5,9,13-tetraen-1-yl)-4,5-dihydrooxazole] | 96 | – | 1.02 | Mean of Hippocampus CA3 Neurons Damaged ([3]; 2 mg/kg oral): 11%
8 | CC(=O)CC/C=C(\C)CC/C=C(\C)CC/C=C(\C)CC/C=C(\C)CCC=C(C)C [Compound 132] | 103 | – | – | –
9 | COCCNC(=S)OC/C=C(\C)CC/C=C(\C)CC/C=C(\C)CCC=C(C)C [Compound 10i, Methoxy-2′-ethyl 2E,6E,10E-geranylgeranyl thiocarbamate] | 83 | 1.08 | 1.04 | Mean of Hippocampus CA3 Neurons Damaged ([3]; 2 mg/kg oral): 22%
10 | COC(=O)[C@@H](NC(=O)OC/C=C(\C)CC/C=C(\C)CC/C=C(\C)CCC=C(C)C)C(C)C [Compound 7j, Methyl 2-(S)-(−)-3-methylbutyrate 2E,6E,10E-geranylgeranyl Carbamate] | 63 | – | – | Mean of Hippocampus CA3 Neurons Damaged ([3]; 1 mg/kg oral): 13%
11 | CCCCCNC(=O)OC(C)CC/C=C(\C)CC/C=C(\C)CCC=C(C)C (stereo not drawn) [Compound 20d, n-Pentyl 5E, 9E-farnesyl prop-2-yl carbamate] | 67 | – | – | –
12 | CC(C)=CCC/C(C)=C/CC/C(C)=C/CC/C(C)=C/c1cnco1 [Compound 14, 5-((1E,5E,9E)-2,6,10,14-tetramethylpentadeca-1,5,9,13-tetraen-1-yl)oxazole] | 96 | 0.96 | – | Mean of Hippocampus CA3 Neurons Damaged ([3]; 2 mg/kg oral): 13%
13 | CCOC(=O)/C=C(\CC)CC/C=C(\C)CC/C=C(\C)CCC=C(C)C [Compound 131] | 61 | – | – | –
14 | CCC(=O)CC/C=C(\CC)CC/C=C(\C)CC/C=C(\C)CCC=C(C)C [Compound 128] | 67 | – | – | –
15 | CC(C)=CCC/C(C)=C/CC/C(C)=C/CC/C(C)=C/COC(=S)NC1CC2CCC1C2 (stereo not drawn) [Compound 10j, Exo-Norbornyl 2E,6E,10E-geranylgeranyl thiocarbamate] | 91 | 1.08 | 1.06 | –
16 | CC(C)=CCC/C(C)=C/CC/C(C)=C/CCC(C)OC(=O)NCC1CCCCC1 (stereo not drawn) [Compound 20h, Cyclohexylmethyl 5E, 9E-farnesyl prop-2-yl carbamate] | 58 | – | – | –
17 | CC(C)=CCC/C(C)=C/CC/C(C)=C/CC/C(C)=C/COC(=S)NC1CC1 [Compound 10f, Cyclopropyl 2E,6E,10E-geranylgeranyl thiocarbamate] | 40 | 1.57 | – | Mean of Hippocampus CA3 Neurons Damaged ([3]; 20 mg/kg oral): 16%
18 | CC(C)=CCC/C(C)=C/CC/C(C)=C/CC/C(C)=C/C1=N[C@@H](Cc2ccccc2)CO1 [Compound 27g, (S)-4-benzyl-2-((1E,5E,9E)-2,6,10,14-tetramethylpentadeca-1,5,9,13-tetraen-1-yl)-4,5-dihydrooxazole] | 129 | 1.11 | – | –
19 | CC(C)=CCC/C(C)=C/CC/C(C)=C/CC/C(C)=C/COC(=O)C1CCCCC1 [Compound 2f, 2E, 6E, 10E-Geranylgeranyl cyclohexanoate] | 65 | – | – | –
20 | CCC(=CCCC(C)=O)CC/C=C(\C)CC/C=C(\C)CCC=C(C)C [Compound 117] | – | – | 1.08 | –
21 | CC(C)=CCC/C(C)=C/CC/C(C)=C/CC/C(C)=C/COC(=O)N1CCN(C)CC1 [Compound 40a] | – | – | 0.99 | –
22 | CCOC(=O)C(C/C=C(\C)CC/C=C(\C)CC/C=C(\C)CCC=C(C)C)C(=O)c1ccoc1 (stereo not drawn) [Compound 68] | – | – | 1.11 | –
23 | CCCCNC(=S)OC/C=C(\C)CC/C=C(\C)CCC=C(C)C [Compound 9c, n-Butyl 2E, 6E-farnesyl thiocarbamate] | – | 0.96 | – | –
24 | CC(C)=CCC/C(C)=C/CC/C(C)=C/CC/C(C)=C/C1=N[C@@H](CC(C)C)C(=O)O1 [Compound 37d, (S)-4-isobutyl-2-((1E,5E,9E)-2,6,10,14-tetramethylpentadeca-1,5,9,13-tetraen-1-yl)oxazol-5(4H)-one] | 128 | 1.04 | – | –
25 | CCOc1ccccc1C(=O)OC/C=C(\C)CC/C=C(\C)CC/C=C(\C)CCC=C(C)C [Compound 2j, 2E, 6E, 10E-Geranylgeranyl-2′ethoxybenzoate] | – | 0.95 | – | –
26 | CC(C)=CCC/C(C)=C/CC/C(C)=C/CC/C(C)=C/COC(=O)Nc1ccccn1 [Compound 40b, (2E,6E,10E)-3,7,11,15-tetramethylhexadeca-2,6,10,14-tetraen-1-yl pyridin-2-ylcarbamate] | – | – | 0.92 | –
27 | CC(C)=CCC/C(C)=C/CC/C(C)=C/CC/C(C)=C/COC(=S)NCc1ccco1 [Compound 38b, O-((2E,6E,10E)-3,7,11,15-tetramethylhexadeca-2,6,10,14-tetraen-1-yl) (furan-2-ylmethyl)carbamothioate] | – | – | 1.04 | –
28 | CC(C)=CCC/C(C)=C/CC/C(C)=C/CC/C(C)=C/COC(=S)Nc1cccnc1 [Compound 38a, O-((2E,6E,10E)-3,7,11,15-tetramethylhexadeca-2,6,10,14-tetraen-1-yl) pyridin-3-ylcarbamothioate] | – | – | 0.79 | –
29 | CC/C(=C\CCC(=O)C12CC3CC(CC(C3)C1)C2)CC/C=C(\C)CC/C=C(\C)CCC=C(C)C [Compound 127] | 77 | – | – | –
30 | CC(C)=CCC/C(C)=C/CC/C(C)=C/CC/C(C)=C/CCC(C)OC(=O)NC1CCCC1 (racemic) [Compound 23c, Cyclopentyl 5E, 9E, 13E-geranylgeranyl-rac-prop-2-yl carbamate] | – | – | 0.96 | –
